What was measured:
[1] = tested on: BCG-immunisierten Makrophagen; assay type: cell-based, Charles River-Ratten; conditions: in vitro, result in words
[2] = tested on: Adjuvansarthritis; experiment: Adjuvant arthritis test in the rat; assay type: in vivo; conditions: po, Ratten, peroral, read-out: hoch aktiv bei peroralen Dosen bis hinunter zu
Source text: Die Verbindungen der Erfindung zeigen wertvolle pharmakologische Eigenschaften, in erster Linie antiinflammatorische und antiarthritische Wirkungen. Diese können in in-vitro oder in-vivo Versuchen nachgewiesen werden. In den letzteren werden vorzugsweise Säugetiere, z.B. Ratten, Katzen, Meerschweinchen oder Hunde als Testobjekte verwendet. Die Verbindungen der Erfindung können ihnen enteral, vorzugsweise oral, parenteral, z.B. subkutan oder intravenös, oder topisch, z.B. in Form von Lösungen in Wasser oder Oel, oder in Form von Stärke enthaltenden Suspensionen, verabreicht werden. Die verwendete Dosis kann in einem Bereich von ungefähr zwischen 0,1 und 100 mg/kg/Tag, vorzugsweise ungefähr 1 und 50 mg/kg/Tag, in erster Linie ungefähr 2 und. 25 mg/kg/Tag, liegen. Die für die genannten Wirkungen gewählten Tests sind entweder klassische Versuchsmethoden, z.B.der Carrageenin-Pfotenödem- oder der Adjuvansarthritis-Test in der Ratte, der Synoviitis-Versuch am Hund oder der Test, in welchem das durch ultraviolettes Licht hervorgerufene Erythem ausgewertet wird, oder moderne Testmethoden. Solche sind die neutrale Protease Hemmung [beschrieben in Arthritis Rheum. 17, 47 (1974)] oder die Hemmung der Leukozyten Chemotaxis [N.Y.Acad. Sci., 256, 177 (1975)]. […]

Structure (SMILES)	Einfluss auf die Makrophagen-Chemotaxis [1]	minimal effective dose [2] [mg/kg/day]
COc1ccc2c(c1)c(CC(=O)O)c(C)n2C(=O)c1ccc(Cl)cc1 [Indomethacin]	beeinflusst das Indomethacin die Makrophagen-Chemotaxis nicht	
Cn1cccc1C(=O)C(C#N)C(=O)Nc1ccccc1 (stereo not drawn) [1-Methyl-β-oxo-α-phenylcarbamoyl-2-pyrrol-propionitril]		≥ 2

From patent EP0021207A1, “Alphacarbamoyl-pyrrolpropionitriles, process for their preparation and pharmaceutical preparations containing them” (priority 1979, dated 1981)
